Assay [1] has as its system ATP-binding aptamer incorporated DNA scaffold (DNA, duplex) ACCTGGGGGAGTATTGCGGAGGAAGGT/ACCTTCCTCCGCAATACTCCCCCAGGT
In words: Dox fluorescence quenching titration. The note with it: aqueous solution; Dox 1 µg/mL; maximum quenching at Dox/DNA mass ratio ~1:9.8.

Assay [2] shares this test system. In words: Dox fluorescence recovery (release of intercalated Dox). The note with it: indirect; Dox/DNA mass ratio 1:10; recovery ~20, ~36, ~56% at 4, 8, 20 mM ATP.

In the case of `COc1cccc2c1C(=O)c1c(O)c3c(c(O)c1C2=O)C[C@@](O)(C(=O)CO)C[C@@H]3O[C@H]1C[C@H](N)[C@H](O)[C@H](C)O1`, the binding entry in assay [1] is recorded as “yes”.

Turning to `Nc1ncnc2c1ncn2[C@@H]1O[C@H](COP(=O)(O)OP(=O)(O)OP(=O)(O)O)[C@@H](O)[C@H]1O`, in assay [2], the binding result is recorded as “yes”.

The record behind these values is paper PMC6165277 (2018).
